Inconclusive results and toxic doses are left out. No stated cut-off is given here; in the data, active means T/C of 150% or more; inactive means T/C below 125%.
Tested on: L1210 leukemia ip in BDF1 mice, survival T/C
Experiment: NCI In Vivo Anticancer Drug Screen. Data for tumor model L1210 Leukemia (intraperitoneal) in B6D2F1 (BDF1) mice
Details: endpoint: mean survival time, higher = longer survival
Summary of the method: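 Transplanted-tumor mice were given test agent; controls received vehicle only. Survival readings from the two groups were divided (treated over control).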

[1] = dose: 100.0 mg/kg/injection, schedule: Q01DX009 (ip), vehicle: Klucel (hydroxypropylcellulose) (HPC)
[2] = dose: 200.0 mg/kg/injection, schedule: Q01DX009 (ip), vehicle: Klucel (hydroxypropylcellulose) (HPC)
[3] = dose: 400.0 mg/kg/injection, schedule: Q01DX009 (ip), vehicle: Klucel (hydroxypropylcellulose) (HPC)
[4] = dose: 100.0 mg/kg/injection, schedule: Q01DX009 (ip), vehicle: saline
[5] = dose: 200.0 mg/kg/injection, schedule: Q01DX009 (ip), vehicle: saline
[6] = dose: 50.0 mg/kg/injection, schedule: Q01DX009 (ip), vehicle: Klucel (hydroxypropylcellulose) (HPC)
[7] = dose: 100.0 mg/kg/injection, schedule: Q04DX003 (ip), vehicle: Klucel (hydroxypropylcellulose) (HPC)
[8] = dose: 200.0 mg/kg/injection, schedule: Q04DX003 (ip), vehicle: Klucel (hydroxypropylcellulose) (HPC)
[9] = dose: 400.0 mg/kg/injection, schedule: Q04DX003 (ip), vehicle: Klucel (hydroxypropylcellulose) (HPC)
[10] = dose: 50.0 mg/kg/injection, schedule: Q01DX001 (ip), vehicle: saline
[11] = dose: 100.0 mg/kg/injection, schedule: Q01DX001 (ip), vehicle: saline
[12] = dose: 200.0 mg/kg/injection, schedule: Q01DX001 (ip), vehicle: saline
[13] = dose: 100.0 mg/kg/injection, schedule: Q04DX002 (ip), vehicle: Klucel (hydroxypropylcellulose) (HPC)
[14] = dose: 200.0 mg/kg/injection, schedule: Q04DX002 (ip), vehicle: Klucel (hydroxypropylcellulose) (HPC)
[15] = dose: 100.0 mg/kg/injection, schedule: Q04DX003 (ip), vehicle: saline
[16] = dose: 200.0 mg/kg/injection, schedule: Q04DX003 (ip), vehicle: saline
[17] = dose: 400.0 mg/kg/injection, schedule: Q01DX009 (ip), vehicle: saline
[18] = dose: 400.0 mg/kg/injection, schedule: Q04DX003 (ip), vehicle: saline
[19] = dose: 100.0 mg/kg/injection, schedule: Q04DX002 (ip), vehicle: saline with Tween-80
[20] = dose: 200.0 mg/kg/injection, schedule: Q04DX002 (ip), vehicle: saline with Tween-80
[21] = dose: 400.0 mg/kg/injection, schedule: Q04DX002 (ip), vehicle: saline with Tween-80

Measured: T/C

O=C(O)/C(=C\c1ccccc1[N+](=O)[O-])c1cccc(Cl)c1
inactive: [1] 90 % of control | [2] 95 % of control

CCCCCCCCCCCCCCCCCC(=O)N/N=C/c1ccc(N(C)C)cc1
inactive: [1] 93 % of control | [2] 94 % of control | [3] 98 % of control

c1ccc2cnccc2c1
inactive: [4] 100 % of control | [5] 110 % of control

CC1(C)N=C(N)N=C(N)N1c1ccc(CC(C(=O)Nc2ccc(S(=O)(=O)F)cc2)c2ccccc2)cc1 (stereo not drawn)
inactive: dose: 75.0 mg/kg/injection, schedule: Q01DX001 (ip), vehicle: Klucel (hydroxypropylcellulose) (HPC) 97 % of control | dose: 150.0 mg/kg/injection, schedule: Q01DX001 (ip), vehicle: Klucel (hydroxypropylcellulose) (HPC) 94 % of control | dose: 300.0 mg/kg/injection, schedule: Q01DX001 (ip), vehicle: Klucel (hydroxypropylcellulose) (HPC) 90 % of control

Nc1c(Cl)c(Cl)nc(C(=O)O)c1Cl
inactive: dose: 6.25 mg/kg/injection, schedule: Q01DX009 (ip), vehicle: Klucel (hydroxypropylcellulose) (HPC) 98 % of control | dose: 12.5 mg/kg/injection, schedule: Q01DX009 (ip), vehicle: Klucel (hydroxypropylcellulose) (HPC) 98 % of control | [6] 100 % of control | [1] 95 % of control | [2] 97 % of control

CCCCCCCN(CCCCCCC)CC(O)c1cc2ccccc2c2cnccc12 (stereo not drawn)
inactive: dose: 100.0 mg/kg/injection, schedule: Q01DX009 (ip), vehicle: other 98 % of control | [7] 91 % of control | dose: 200.0 mg/kg/injection, schedule: Q01DX009 (ip), vehicle: other 97 % of control | [8] 98 % of control | [9] 93 % of control

CC(N=Nc1ccccc1)/N=N/c1nn[nH]n1 (stereo not drawn)
inactive: [7] 100 % of control | [8] 94 % of control | [9] 96 % of control

O=C1C(c2ccccc2)=C2C(=C1c1ccccc1)c1cccc3cccc2c13
inactive: [10] 97 % of control | [11] 97 % of control | dose: 100.0 mg/kg/injection, schedule: Q01DX009 (ip), vehicle: saline with Tween-80 92 % of control | [12] 100 % of control | dose: 200.0 mg/kg/injection, schedule: Q01DX009 (ip), vehicle: saline with Tween-80 103 % of control | dose: 400.0 mg/kg/injection, schedule: Q01DX001 (ip), vehicle: saline 120 % of control | dose: 400.0 mg/kg/injection, schedule: Q01DX009 (ip), vehicle: saline with Tween-80 97 % of control

COc1cccc(CNc2cccc([N+](=O)[O-])c2)c1OC
inactive: [1] 95 % of control | [7] 102 % of control | [2] 97 % of control | [8] 96 % of control | [3] 95 % of control | [9] 95 % of control

CC(=O)Nc1c(I)cc(I)c(C(=O)O)c1I
inactive: dose: 100.0 mg/kg/injection, schedule: Q04DX003 (ip), vehicle: saline sonified 98 % of control | dose: 200.0 mg/kg/injection, schedule: Q04DX003 (ip), vehicle: saline sonified 101 % of control | dose: 400.0 mg/kg/injection, schedule: Q04DX003 (ip), vehicle: saline sonified 103 % of control

CC(=O)Nc1ccccc1Sc1ccc(Br)cc1[N+](=O)[O-]
inactive: dose: 75.0 mg/kg/injection, schedule: Q04DX003 (ip), vehicle: saline 91 % of control | dose: 150.0 mg/kg/injection, schedule: Q04DX003 (ip), vehicle: saline 90 % of control | dose: 300.0 mg/kg/injection, schedule: Q04DX003 (ip), vehicle: saline 87 % of control

[O-][n+]1ccccc1-c1ccccc1
inactive: [6] 104 % of control | [1] 101 % of control | [13] 104 % of control | [2] 118 % of control | [14] 107 % of control

CCN(CC)Cc1ccccc1COC(=O)c1cccc(Cl)c1
inactive: [13] 103 % of control | [14] 103 % of control | dose: 400.0 mg/kg/injection, schedule: Q04DX002 (ip), vehicle: Klucel (hydroxypropylcellulose) (HPC) 92 % of control

O=c1[nH]c(=S)[nH]cc1CN(CCO)CCO
inactive: [10] 97 % of control | [11] 90 % of control | [12] 95 % of control

COc1ccc(C(CC(=O)c2ccccc2)CC(=O)c2ccccc2)cc1
inactive: dose: 400.0 mg/kg/injection, schedule: Q04DX003 (ip), vehicle: saline with Tween-80 87 % of control

CC1CC1C(=O)Cl (stereo not drawn)
inactive: dose: 50.0 mg/kg/injection, schedule: Q01DX009 (ip), vehicle: saline 97 % of control | [4] 101 % of control

CCC(=O)C(CCCN(C)C)(c1ccccc1)c1ccccc1
inactive: dose: 5.0 mg/kg/injection, schedule: Q01DX001 (ip), vehicle: saline 107 % of control | dose: 10.0 mg/kg/injection, schedule: Q01DX001 (ip), vehicle: saline 104 % of control | dose: 20.0 mg/kg/injection, schedule: Q01DX001 (ip), vehicle: saline 93 % of control | dose: 40.0 mg/kg/injection, schedule: Q01DX001 (ip), vehicle: saline 98 % of control

CC(=O)Oc1cc(-c2ccccc2)c2oc(C)nc2c1-c1ccccc1
inactive: [7] 101 % of control | [8] 103 % of control | [9] 93 % of control

CCOc1ccc(Br)cc1/C=C/C(C)=O
inactive: [4] 103 % of control | [15] 95 % of control | [5] 98 % of control | [16] 111 % of control | [17] 90 % of control | [18] 97 % of control

Cc1nc(N)[nH]c(=O)c1CCCNC(=O)c1ccccc1
inactive: dose: 100.0 mg/kg/injection, schedule: Q01DX001 (ip), vehicle: Klucel (hydroxypropylcellulose) (HPC) 94 % of control | dose: 200.0 mg/kg/injection, schedule: Q01DX001 (ip), vehicle: Klucel (hydroxypropylcellulose) (HPC) 91 % of control | dose: 400.0 mg/kg/injection, schedule: Q01DX001 (ip), vehicle: Klucel (hydroxypropylcellulose) (HPC) 87 % of control

O=C1c2cccc3cc([N+](=O)[O-])cc(c23)C(=O)N1C(Cc1ccccc1)c1ccccc1 (stereo not drawn)
inactive: [19] 103 % of control | [20] 95 % of control | [21] 103 % of control

FC1C(F)(F)C(F)(F)C(F)(F)C(F)(F)C1(F)F
inactive: dose: 50.0 mg/kg/injection, schedule: Q01DX001 (ip), vehicle: carboxymethylcellulose (CMC) 97 % of control | dose: 100.0 mg/kg/injection, schedule: Q01DX001 (ip), vehicle: carboxymethylcellulose (CMC) 97 % of control | dose: 200.0 mg/kg/injection, schedule: Q01DX001 (ip), vehicle: carboxymethylcellulose (CMC) 107 % of control | dose: 400.0 mg/kg/injection, schedule: Q01DX001 (ip), vehicle: carboxymethylcellulose (CMC) 96 % of control

CN(C)[C@@H]1C(=O)C(C(=O)NCNCCCC(=O)O)=C(O)[C@@]2(O)C(=O)C3=C(O)c4c(O)cccc4[C@@](C)(O)[C@H]3C[C@@H]12
inactive: [4] 103 % of control | [15] 105 % of control | [5] 102 % of control | [16] 96 % of control | [17] 94 % of control | [18] 96 % of control

COc1cc(/C=C/C(=O)c2ccc3c(c2)OCO3)ccc1OCc1ccccc1
inactive: dose: 100.0 mg/kg/injection, schedule: Q04DX003 (ip), vehicle: water 93 % of control | dose: 200.0 mg/kg/injection, schedule: Q04DX003 (ip), vehicle: water 91 % of control | dose: 400.0 mg/kg/injection, schedule: Q04DX003 (ip), vehicle: water 93 % of control

Cc1ccc(C(C)(C)[CH2][Sn]([CH2]C(C)(C)c2ccc(C)cc2)([CH2]C(C)(C)c2ccc(C)cc2)[CH2]C(C)(C)c2ccc(C)cc2)cc1
inactive: dose: 50.0 mg/kg/injection, schedule: Q04DX002 (ip), vehicle: saline with Tween-80 92 % of control | [19] 100 % of control | [20] 103 % of control | [21] 92 % of control

Cc1cc(/C=N/NC(=O)c2ccccc2NC(=O)c2ccccc2Cl)ccc1O
inactive: [1] 88 % of control | [2] 92 % of control | [3] 86 % of control

CC(=O)NC(CSSCC(N)C(=O)O)C(=O)O (stereo not drawn) (tested in a mixture with another compound)
inactive: dose: 12.5 mg/kg/injection, schedule: Q04DX002 (ip), vehicle: DMSO 93 % of control | dose: 25.0 mg/kg/injection, schedule: Q04DX002 (ip), vehicle: DMSO 103 % of control | dose: 50.0 mg/kg/injection, schedule: Q04DX002 (ip), vehicle: DMSO 93 % of control
